Measurements: US9783505B2, “Substituted diaminopyrimidyl compounds, compositions thereof, and methods of treatment therewith” (Signal Pharmaceuticals, LLC, priority 2013, dated 2017)

Tests used:
[1] = target: T1, PKC delta (Homo sapiens, UniProt Q05655); experiment: PKC delta Assay (384-well time resolved fluorescence, IMAP TR-FRET); type: biochemical; conditions: selectivity for PKC-theta over PKC-delta
T1 construct: purchased Invitrogen
Protocol: PKC delta Assay. A 384-well time resolved fluorescence assay was used to monitor PKC delta activity. The PKC delta assay was run in the following assay buffer: 50 mM HEPES pH 7.6, 10 mM MgCl2, 1 mM DTT, 0.01% Triton X-100, 0.01% BSA and 0.1 mM EDTA. To initiate the reaction, 200 nM of Fam-labeled S6-derived peptide (Molecular Devices) and 10 μM of ATP were mixed with 1.5 nM of PKC delta (Invitrogen), for a total assay volume of 25 μL in each well. The assay was incubated at room temperature for 2 hours and terminated using a 60 μL/well mixture of Detection Binding Solution: 70% IMAP Progressive Binding Buffer A, 30% IMAP Progressive Binding Buffer B, 1:600 Progressive Binding Reagent, and 1:400 TR-FRET Tb Donor (Molecular Devices). The assay plates were then incubated overnight at room temperature and read on the Perkin-Elmer Envision Reader.

[2] = target: T2, His-PKC-theta (Homo sapiens, UniProt Q04759); experiment: PKC-theta Assay (384-well time resolved fluorescence, IMAP TR-FRET); type: biochemical; conditions: read-out: Act. Level (IC50 in the PKC-theta Assay)
T2 construct: His; purchased Invitrogen
T2 sequence (Q04759 whole entry): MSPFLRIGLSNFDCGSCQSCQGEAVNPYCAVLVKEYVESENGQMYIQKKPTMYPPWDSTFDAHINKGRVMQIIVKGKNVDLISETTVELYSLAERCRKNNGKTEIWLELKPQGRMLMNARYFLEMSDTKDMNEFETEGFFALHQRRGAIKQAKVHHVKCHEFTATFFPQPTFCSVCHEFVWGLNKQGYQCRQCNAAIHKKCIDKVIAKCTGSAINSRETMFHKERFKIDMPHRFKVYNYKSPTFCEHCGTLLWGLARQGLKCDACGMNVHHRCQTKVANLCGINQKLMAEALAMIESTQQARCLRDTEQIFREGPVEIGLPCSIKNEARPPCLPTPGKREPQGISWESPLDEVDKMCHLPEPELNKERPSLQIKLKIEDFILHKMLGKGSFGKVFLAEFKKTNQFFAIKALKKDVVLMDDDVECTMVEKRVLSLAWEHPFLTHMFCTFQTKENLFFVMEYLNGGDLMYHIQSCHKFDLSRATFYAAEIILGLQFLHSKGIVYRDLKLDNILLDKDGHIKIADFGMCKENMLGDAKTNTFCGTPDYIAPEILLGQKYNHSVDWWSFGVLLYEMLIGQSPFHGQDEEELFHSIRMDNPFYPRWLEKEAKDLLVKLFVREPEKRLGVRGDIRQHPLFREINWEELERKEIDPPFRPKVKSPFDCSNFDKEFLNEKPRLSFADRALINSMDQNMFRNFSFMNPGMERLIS
How it was run: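 Enzyme at 142 pM phosphorylated 200 nM Fam-S6 peptide with 10 μM ATP in 50 mM HEPES pH 7.6, 10 mM MgCl2, 1 mM DTT for 2 h at room temperature. Product was detected after overnight incubation with IMAP binding reagent and Tb donor by time-resolved FRET.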

T1 sequence (Q05655 whole entry): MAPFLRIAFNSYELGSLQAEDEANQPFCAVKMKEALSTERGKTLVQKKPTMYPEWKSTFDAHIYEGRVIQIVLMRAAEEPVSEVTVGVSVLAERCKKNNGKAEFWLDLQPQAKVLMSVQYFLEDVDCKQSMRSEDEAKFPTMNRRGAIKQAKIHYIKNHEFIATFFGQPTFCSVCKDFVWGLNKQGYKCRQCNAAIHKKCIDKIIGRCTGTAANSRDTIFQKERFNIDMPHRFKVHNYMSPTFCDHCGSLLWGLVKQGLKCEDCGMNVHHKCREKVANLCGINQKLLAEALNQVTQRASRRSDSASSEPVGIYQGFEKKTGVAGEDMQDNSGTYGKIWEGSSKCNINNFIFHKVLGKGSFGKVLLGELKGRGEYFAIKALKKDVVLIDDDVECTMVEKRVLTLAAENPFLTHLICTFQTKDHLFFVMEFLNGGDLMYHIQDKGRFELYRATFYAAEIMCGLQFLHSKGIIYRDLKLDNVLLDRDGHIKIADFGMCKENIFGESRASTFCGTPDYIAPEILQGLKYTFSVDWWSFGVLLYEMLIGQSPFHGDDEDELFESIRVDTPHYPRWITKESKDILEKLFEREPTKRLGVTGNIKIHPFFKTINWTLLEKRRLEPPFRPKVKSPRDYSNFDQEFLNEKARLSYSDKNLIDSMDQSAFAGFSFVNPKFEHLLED

Cc1cccc2c1NC(=O)C2CCNc1ncc(C#N)c(N[C@@H]2C[C@H](O)C2(C)C)n1 (stereo partly drawn) [Cmpd 260]
Sel. Level (ratio of IC50 PKC-delta/IC50 PKC-theta) [1]: F (selectivity of between 20- and 100-fold (selectivity level F)) | IC50 [2]: < 100 nM

Cc1cccc(CCNc2ncc(C#N)c(N[C@@H]3C[C@H](O)C3(C)C)n2)n1 [Cmpd 262]
Sel. Level (ratio of IC50 PKC-delta/IC50 PKC-theta) [1]: H (selectivity level of 5-fold or less (selectivity level H)) | IC50 [2]: 2000 to 10000 nM

CC1(C)[C@@H](O)C[C@H]1Nc1nc(NCCC2CNc3cc(Cl)ccc32)ncc1C#N (stereo partly drawn) [Cmpd 263]
Sel. Level (ratio of IC50 PKC-delta/IC50 PKC-theta) [1]: G (selectivity between 5- and 20-fold (selectivity level G)) | IC50 [2]: 100 to 800 nM

CC1(C)[C@@H](O)C[C@H]1Nc1nc(NCCc2cc3cc(C#N)ccc3[nH]2)ncc1C#N [Cmpd 264]
Sel. Level (ratio of IC50 PKC-delta/IC50 PKC-theta) [1]: G (selectivity between 5- and 20-fold (selectivity level G)) | IC50 [2]: 100 to 800 nM

CC1(C)[C@@H](O)C[C@H]1Nc1nc(NCCc2c[nH]c3cc(F)ccc23)ncc1C#N [Cmpd 265]
Sel. Level (ratio of IC50 PKC-delta/IC50 PKC-theta) [1]: G (selectivity between 5- and 20-fold (selectivity level G)) | IC50 [2]: 100 to 800 nM

CNS(=O)(=O)Cc1ccc2[nH]cc(CCNc3ncc(C#N)c(N[C@@H]4C[C@H](O)C4(C)C)n3)c2c1 [Cmpd 266]
Sel. Level (ratio of IC50 PKC-delta/IC50 PKC-theta) [1]: H (selectivity level of 5-fold or less (selectivity level H)) | IC50 [2]: 2000 to 10000 nM

CCOc1cccc(CCNc2ncc(C#N)c(N[C@@H]3C[C@H](O)C3(C)C)n2)n1 [Cmpd 267]
Sel. Level (ratio of IC50 PKC-delta/IC50 PKC-theta) [1]: G (selectivity between 5- and 20-fold (selectivity level G)) | IC50 [2]: 800 to 2000 nM

Cc1cnccc1CCNc1ncc(C#N)c(N[C@@H]2C[C@H](O)C2(C)C)n1 [Cmpd 268]
Sel. Level (ratio of IC50 PKC-delta/IC50 PKC-theta) [1]: G (selectivity between 5- and 20-fold (selectivity level G)) | IC50 [2]: 800 to 2000 nM

CC1(C)C[C@H](Nc2nc(NCCc3cncc(C(F)(F)F)c3)ncc2C#N)CC[C@@H]1O [Cmpd 271]
Sel. Level (ratio of IC50 PKC-delta/IC50 PKC-theta) [1]: G (selectivity between 5- and 20-fold (selectivity level G)) | IC50 [2]: 800 to 2000 nM

CC1(C)C[C@H](Nc2nc(NCCc3ccnc(C(F)(F)F)c3)ncc2C#N)CC[C@@H]1O [Cmpd 272]
Sel. Level (ratio of IC50 PKC-delta/IC50 PKC-theta) [1]: G (selectivity between 5- and 20-fold (selectivity level G)) | IC50 [2]: 100 to 800 nM

CC1(C)[C@@H](O)C[C@H]1Nc1nc(NCCc2ccnc(C(F)(F)F)c2)ncc1C#N [Cmpd 273]
Sel. Level (ratio of IC50 PKC-delta/IC50 PKC-theta) [1]: G (selectivity between 5- and 20-fold (selectivity level G)) | IC50 [2]: 800 to 2000 nM

CC1(C)[C@@H](O)C[C@H]1Nc1nc(NCCc2cncc(C(F)(F)F)c2)ncc1C#N [Cmpd 274]
Sel. Level (ratio of IC50 PKC-delta/IC50 PKC-theta) [1]: G (selectivity between 5- and 20-fold (selectivity level G)) | IC50 [2]: 800 to 2000 nM

CC1(C)C[C@H](Nc2nc(NCCc3cc(Cl)c[n+]([O-])c3)ncc2C#N)CC[C@@H]1O [Cmpd 275]
Sel. Level (ratio of IC50 PKC-delta/IC50 PKC-theta) [1]: G (selectivity between 5- and 20-fold (selectivity level G)) | IC50 [2]: 800 to 2000 nM

CC1(C)C[C@H](Nc2nc(NCCc3cncc(Cl)c3)ncc2C#N)CC[C@@H]1O [Cmpd 276]
Sel. Level (ratio of IC50 PKC-delta/IC50 PKC-theta) [1]: F (selectivity of between 20- and 100-fold (selectivity level F)) | IC50 [2]: 100 to 800 nM

CC1(C)C[C@H](Nc2nc(NCCc3cncnc3)ncc2C#N)CC[C@@H]1O [Cmpd 277]
Sel. Level (ratio of IC50 PKC-delta/IC50 PKC-theta) [1]: H (selectivity level of 5-fold or less (selectivity level H)) | IC50 [2]: 2000 to 10000 nM

CC1(C)C[C@H](Nc2nc(NCCc3ccncn3)ncc2C#N)CC[C@@H]1O [Cmpd 278]
Sel. Level (ratio of IC50 PKC-delta/IC50 PKC-theta) [1]: H (selectivity level of 5-fold or less (selectivity level H)) | IC50 [2]: 2000 to 10000 nM

CC1(C)C[C@H](Nc2nc(NCCc3cnccn3)ncc2C#N)CC[C@@H]1O [Cmpd 279]
Sel. Level (ratio of IC50 PKC-delta/IC50 PKC-theta) [1]: H (selectivity level of 5-fold or less (selectivity level H)) | IC50 [2]: 2000 to 10000 nM

CC1(C)C[C@H](Nc2nc(NCCc3ccncc3)ncc2C#N)CC[C@@H]1O [Cmpd 280]
Sel. Level (ratio of IC50 PKC-delta/IC50 PKC-theta) [1]: G (selectivity between 5- and 20-fold (selectivity level G)) | IC50 [2]: 100 to 800 nM

CC1(C)C[C@H](Nc2nc(NCCc3cccnc3)ncc2C#N)CC[C@@H]1O [Cmpd 281]
Sel. Level (ratio of IC50 PKC-delta/IC50 PKC-theta) [1]: G (selectivity between 5- and 20-fold (selectivity level G)) | IC50 [2]: 800 to 2000 nM

CC1(C)C[C@H](Nc2nc(NCCc3ccccn3)ncc2C#N)CC[C@@H]1O [Cmpd 282]
Sel. Level (ratio of IC50 PKC-delta/IC50 PKC-theta) [1]: H (selectivity level of 5-fold or less (selectivity level H)) | IC50 [2]: 2000 to 10000 nM

CC1(C)C[C@H](Nc2nc(NCCc3c[nH]c4cnccc34)ncc2C#N)CC[C@@H]1O [Cmpd 283]
Sel. Level (ratio of IC50 PKC-delta/IC50 PKC-theta) [1]: F (selectivity of between 20- and 100-fold (selectivity level F)) | IC50 [2]: 100 to 800 nM

CC1(C)C[C@H](Nc2nc(NCCc3c[nH]c4ccncc34)ncc2C#N)CC[C@@H]1O [Cmpd 284]
Sel. Level (ratio of IC50 PKC-delta/IC50 PKC-theta) [1]: H (selectivity level of 5-fold or less (selectivity level H)) | IC50 [2]: 2000 to 10000 nM

CC(F)(F)COc1ncncc1CNc1ncc(C#N)c(N[C@H]2CCC[C@](C)(O)C2)n1 [Cmpd 285]
Sel. Level (ratio of IC50 PKC-delta/IC50 PKC-theta) [1]: H (selectivity level of 5-fold or less (selectivity level H)) | IC50 [2]: 2000 to 10000 nM

CC(F)(F)COc1ncncc1CNc1ncc(C#N)c(N[C@@H]2CCC[C@@](C)(O)C2)n1 [Cmpd 286]
Sel. Level (ratio of IC50 PKC-delta/IC50 PKC-theta) [1]: F (selectivity of between 20- and 100-fold (selectivity level F)) | IC50 [2]: 100 to 800 nM

CC(F)(F)COc1ncncc1CNc1ncc(C#N)c(N[C@H]2CCC[C@@](C)(O)C2)n1 [Cmpd 287]
Sel. Level (ratio of IC50 PKC-delta/IC50 PKC-theta) [1]: F (selectivity of between 20- and 100-fold (selectivity level F)) | IC50 [2]: 100 to 800 nM

CN(C)C(=O)[C@H]1C[C@@H](Nc2nc(NCCc3c[nH]c4ccccc34)ncc2C#N)C1 [Cmpd 288]
Sel. Level (ratio of IC50 PKC-delta/IC50 PKC-theta) [1]: G (selectivity between 5- and 20-fold (selectivity level G)) | IC50 [2]: 100 to 800 nM

CNC(=O)[C@H]1C[C@@H](Nc2nc(NCCc3c[nH]c4ccccc34)ncc2C#N)C1 [Cmpd 289]
Sel. Level (ratio of IC50 PKC-delta/IC50 PKC-theta) [1]: G (selectivity between 5- and 20-fold (selectivity level G)) | IC50 [2]: 800 to 2000 nM

N#Cc1cnc(NCCc2c[nH]c3ccccc23)nc1N[C@H]1C[C@@H](C(N)=O)C1 [Cmpd 290]
Sel. Level (ratio of IC50 PKC-delta/IC50 PKC-theta) [1]: F (selectivity of between 20- and 100-fold (selectivity level F)) | IC50 [2]: 100 to 800 nM

Cn1c(=O)n(CCNc2ncc(C#N)c(N[C@@H]3CC[C@H](O)C(C)(C)C3)n2)c2ccccc21 [Cmpd 291]
Sel. Level (ratio of IC50 PKC-delta/IC50 PKC-theta) [1]: H (selectivity level of 5-fold or less (selectivity level H)) | IC50 [2]: 2000 to 10000 nM

Cn1cc(CCNc2ncc(C#N)c(N[C@@H]3CC[C@H](O)C(C)(C)C3)n2)c2ccccc21 [Cmpd 292]
Sel. Level (ratio of IC50 PKC-delta/IC50 PKC-theta) [1]: F (selectivity of between 20- and 100-fold (selectivity level F)) | IC50 [2]: < 100 nM

CC(F)(F)COc1ncncc1CNc1ncc(C#N)c(N[C@H]2CC3(C2)C[C@](C)(O)C3)n1 (stereo partly drawn) [Cmpd 294]
Sel. Level (ratio of IC50 PKC-delta/IC50 PKC-theta) [1]: F (selectivity of between 20- and 100-fold (selectivity level F)) | IC50 [2]: 100 to 800 nM

CC(F)(F)COc1ncncc1CNc1ncc(C#N)c(N[C@H]2CC3(C2)C[C@](C)(O)C3)n1 (stereo partly drawn) [Cmpd 295]
Sel. Level (ratio of IC50 PKC-delta/IC50 PKC-theta) [1]: F (selectivity of between 20- and 100-fold (selectivity level F)) | IC50 [2]: 100 to 800 nM

CC(F)(F)COc1ncncc1CNc1ncc(C#N)c(N[C@H]2CCC[C@H](O)C2(C)C)n1 [Cmpd 296]
Sel. Level (ratio of IC50 PKC-delta/IC50 PKC-theta) [1]: F (selectivity of between 20- and 100-fold (selectivity level F)) | IC50 [2]: 100 to 800 nM
